According to patent US6251912A, “Substituted quinazoline derivatives” (American Cyanamid Company, priority 1998, dated 2001):
Values after ≈ are worked out from the molar mass of the structure shown. Like-named read-outs stand apart in the source and are kept apart here.

Assays:
[1] = tested on: SW620; experiment: Inhibition of cancer cell growth as measured by cell number, SW620; assay type: cell-based; conditions: Homo sapiens, read-out: IC50, inhibition of cancer cell growth
Procedure: (§1) After 48 hours exposure to test compounds, cells were fixed with trichloroacetic acid, and stained with Sulforhodamine B. After washing with trichloroacetic acid, bound dye was solubilized in 10 mM Tris base and optical density was determined using plate reader. Under conditions of the assay the optical density is proportional to the number of cells in the well. […] The test procedure is described in details by Philip Skehan et. al, J.Natl. Canc.

[2] = tested on: SKBR3; experiment: Inhibition of cancer cell growth as measured by cell number, SKBR3; assay type: cell-based; conditions: Homo sapiens, read-out: IC50, inhibition of cancer cell growth
Procedure: as §1

[3] = tested on: A431; experiment: Inhibition of cancer cell growth as measured by cell number, A431; assay type: cell-based; conditions: Homo sapiens, read-out: IC50, inhibition of cancer cell growth
Procedure: as §1

[4] = tested on: LOX; experiment: Inhibition of cancer cell growth as measured by cell number, LOX; assay type: cell-based; conditions: Homo sapiens, read-out: IC50, inhibition of cancer cell growth
Procedure: as §1

[5] = tested on: A2780DDP; experiment: Inhibition of cancer cell growth as measured by cell number, A2780DDP; assay type: cell-based; conditions: Homo sapiens, read-out: IC50, inhibition of cancer cell growth
Procedure: as §1

[6] = tested on: MCF7; experiment: Inhibition of cancer cell growth as measured by cell number, MCF7; assay type: cell-based; conditions: Homo sapiens, read-out: IC50, inhibition of cancer cell growth
Procedure: as §1

[7] = tested on: A2780S; experiment: Inhibition of cancer cell growth as measured by cell number, A2780S; assay type: cell-based; conditions: Homo sapiens, read-out: IC50, inhibition of cancer cell growth
Procedure: as §1

[8] = tested on: MB435; experiment: Inhibition of cancer cell growth as measured by cell number, MB435; assay type: cell-based; conditions: Homo sapiens, read-out: IC50, inhibition of cancer cell growth
Procedure: as §1

[9] = tested on: human epidermoid tumors (A431); assay type: in vivo, BALB/c nu/nu female mice; conditions: for % T/C / Relative Tumor Growth (RTG): days 1 through 10; for inhibition of tumor growth in vivo: in words
Procedure: BALB/c nu/nu female mice (Charles River, Wilmington, Mass.) were used in the in vivo standard pharmacological test procedures. […] A unit of 5×10^6 cells were injected SC into mice. When tumors attained a mass of between 100 and 150 mg, the mice were randomized into treatment groups (day zero). Mice were treated IP or PO once a day either on days 1, 5, and 9 or on days 1 through 10 post staging with doses of either 80, 40 or 20, or 10 mg/kg/dose of the compound to be evaluated in 0.2% Klucel. Control animals received no drug. […] […] The %T/C (Tumor/Control) is determined by dividing the relative tumor growth of the treated group by the relative tumor growth of the placebo group and multiplying by 100.

CC(C)(C)[Si](C)(C)OCC#CC(=O)Nc1ccc2ncnc(Nc3cccc(Br)c3)c2c1 [Example 15, 4-(tert-Butyl-dimethyl-silanyloxy)-but-2-ynoic acid [4-(3-bromo-phenylamino)-quinazolin-6-yl]-amide] gave an IC50 ([1]; SW-620, 48 h) of 0.02 µg/mL (≈ 0.0391 µM), an IC50 ([2]; SK-BR-3, 48 h) of 0.38 µg/mL (≈ 0.743 µM) and an IC50 ([3]; A-431, 48 h) of 0.04 µg/mL (≈ 0.0782 µM). The IC50 ([4]; 48 h) was 0.03 µg/mL (≈ 0.0587 µM), the IC50 ([5]; 48 h) was 0.05 µg/mL (≈ 0.0978 µM) and the IC50 ([6]; MCF7, 48 h) was 0.45 µg/mL (≈ 0.88 µM). It also gave an IC50 ([7]; 48 h) of 0.02 µg/mL (≈ 0.0391 µM) and an IC50 ([8]; 48 h) of 0.42 µg/mL (≈ 0.821 µM).
In the case of CN(C)CC#CC(=O)Nc1ccc2ncnc(Nc3cccc(Br)c3)c2c1 [Example 21, 4-Dimethylamino-but-2-ynoic acid [4-(3-bromo-phenylamino)-quinazolin-6-yl]-amide], the “% T/C” value ([9]; 10 mg/kg/dose PO, Day 16) is reported as 56%, the “% T/C” value ([9]; 10 mg/kg/dose PO, Day 21) is reported as 42% and the “% T/C” value ([9]; 10 mg/kg/dose PO, Day 28) is reported as 42%. The “% T/C” value ([9]; 20 mg/kg/dose PO, Day 7) was 100%, the “% T/C” value ([9]; 20 mg/kg/dose PO, Day 16) was 82% and the “% T/C” value ([9]; 20 mg/kg/dose PO, Day 28) was 72%. The “% T/C” value ([9]; 40 mg/kg/dose PO, Day 7) was 79%, the “% T/C” value ([9]; 40 mg/kg/dose PO, Day 16) was 84% and the “inhibition of tumor growth in vivo” value [9] was “effective inhibitor of tumor growth in vivo”.
In the case of CCN(CC)CC#CC(=O)Nc1ccc2ncnc(Nc3cccc(Br)c3)c2c1 [Example 25, 4-Diethylamino-but-2-ynoic acid[4-(3-bromo-phenylamino)-quinazolin-6-yl]-amide], the “% T/C” value ([9]; 40 PO, Day 7 (TABLE 5)) is reported as 71%, the “Relative Tumor Growth (RTG)” value ([9]; 40 PO, Day 7, control 2.76 (TABLE 5)) is reported as 1.96 and the “% T/C” value ([9]; 40 PO, Day 14 (TABLE 5)) is reported as 33%. The “Relative Tumor Growth (RTG)” value ([9]; 40 PO, Day 14, control 7.07 (TABLE 5)) was 2.33, the “% T/C” value ([9]; 40 PO, Day 21 (TABLE 5)) was 40% and the “Relative Tumor Growth (RTG)” value ([9]; 40 PO, Day 21, control 11.75 (TABLE 5)) was 4.68. For the same compound, the “% T/C” value ([9]; 40 PO, Day 28 (TABLE 5)) was 52%, the “Relative Tumor Growth (RTG)” value ([9]; 40 PO, Day 28, control 17.13 (TABLE 5)) was 8.84 and the “inhibition of tumor growth in vivo” value [9] was “effective inhibitor of tumor growth in vivo”. For the same compound, the “S/T (No. Survivors/No. Treated)” value ([9]; mouse, in vivo, po) was 4/5.
Work on C=C(CN1CCOCC1)C(=O)Nc1ccc2ncnc(Nc3cccc(Br)c3)c2c1 [Example 63, N-[4-(3-Bromo-phenylamino)-quinazolin-6-yl]-2-morpholin-4-ylmethyl-acrylamide] yielded an IC50 ([1]; SW-620, 48 h) of 5.5 µg/mL (≈ 11.7 µM), an IC50 ([2]; SK-BR-3, 48 h) of 10 µg/mL (≈ 21.4 µM) and an IC50 ([3]; A-431, 48 h) of 0.6 µg/mL (≈ 1.28 µM). It also gave an IC50 ([4]; 48 h) of 3.9 µg/mL (≈ 8.33 µM), an IC50 ([5]; 48 h) of 4 µg/mL (≈ 8.54 µM) and an IC50 ([6]; MCF7, 48 h) of 17 µg/mL (≈ 36.3 µM). It also gave an IC50 ([7]; 48 h) of 0.8 µg/mL (≈ 1.71 µM) and an IC50 ([8]; 48 h) of 4.5 µg/mL (≈ 9.61 µM).
For CN(C)CC=CC(=O)Nc1ccc2ncnc(Nc3cccc(Br)c3)c2c1 [Example 66, 4-Dimethylamino-but-2-enoic acid [4-(3-bromo-phenylamino)-quinazolin-6-yl]-amide], the IC50 ([1]; SW-620, 48 h) was 5.1 µg/mL (≈ 12 µM), the IC50 ([2]; SK-BR-3, 48 h) was under 0.01 µg/mL and the IC50 ([3]; A-431, 48 h) was 0.007 µg/mL (≈ 0.0164 µM). For the same compound, the IC50 ([4]; 48 h) was 4.9 µg/mL (≈ 11.5 µM), the IC50 ([5]; 48 h) was 5.1 µg/mL (≈ 12 µM) and the IC50 ([6]; MCF7, 48 h) was 7.6 µg/mL (≈ 17.8 µM). For the same compound, the IC50 ([7]; 48 h) was 3.9 µg/mL (≈ 9.15 µM) and the IC50 ([8]; 48 h) was 5.4 µg/mL (≈ 12.7 µM).
For CCN(CC)CC=CC(=O)Nc1ccc2ncnc(Nc3cccc(Br)c3)c2c1 [Example 67, 4-Diethylamino-but-2-enoic acid [4-(3-bromo-phenylamino)-quinazolin-6-yl]-amide], the IC50 ([1]; SW-620, SW620, 48 hours exposure) was 52 µg/mL (≈ 114 µM), the IC50 ([2]; SK-BR-3, SKBR3, 48 hours exposure) was under 0.01 µg/mL and the IC50 ([3]; A-431, A431, 48 hours exposure) was 0.01 µg/mL (≈ 0.022 µM). For the same compound, the IC50 ([4]; 48 hours exposure) was 46 µg/mL (≈ 101 µM), the IC50 ([5]; A2780DDP, 48 hours exposure) was 43 µg/mL (≈ 94.6 µM) and the IC50 ([6]; MCF7, 48 hours exposure) was 59 µg/mL (≈ 130 µM). The IC50 ([7]; 48 hours exposure) was 22 µg/mL (≈ 48.4 µM) and the IC50 ([8]; MB435, 48 hours exposure) was 45 µg/mL (≈ 99 µM).
